# Assay results published in patent US20250034110A1, “LPAR1 ANTAGONISTS AND USES THEREOF” (Pipeline Therapeutics, Inc., priority 2021, published 2025).
# Target: human LPAR1 (Homo sapiens, UniProt Q92633)
# Experiment: In vitro functional assay of lysophosphatidic acid receptor 1 activity (calcium flux)
# Assay type: cell-based
# Conditions: B103 cells stably expressing human LPAR1; calcium flux (Fluo-4 NW) after lysophosphatidic acid (18:1) at EC80; 100 pM to 10 μM; read-out: LPAR1 IC50
# Sequence of human LPAR1 (Q92633 whole entry): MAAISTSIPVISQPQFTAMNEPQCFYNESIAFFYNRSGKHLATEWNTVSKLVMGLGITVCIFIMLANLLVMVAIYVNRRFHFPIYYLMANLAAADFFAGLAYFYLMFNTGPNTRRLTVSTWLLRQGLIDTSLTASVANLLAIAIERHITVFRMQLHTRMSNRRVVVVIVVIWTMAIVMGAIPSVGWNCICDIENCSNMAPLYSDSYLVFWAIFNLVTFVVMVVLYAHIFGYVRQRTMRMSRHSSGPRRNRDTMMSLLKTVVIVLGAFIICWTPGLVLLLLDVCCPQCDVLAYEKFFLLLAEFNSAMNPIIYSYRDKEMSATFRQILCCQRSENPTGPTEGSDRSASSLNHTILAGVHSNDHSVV
row,Structure (SMILES),IC50 [nM]
1,"CC(C)c1ccccc1N(C(=O)Nc1cc(F)c(F)cc1OC(F)F)[C@H]1C[C@H](C(=O)O)C1 [Example 164, trans-3-(3-(2-(difluoromethoxy)-4,5-difluorophenyl)-1-(2-isopropylphenyl)ureido)cyclobutane-1-carboxylic acid]",10 to 100
2,"CC(=O)N1CC2(CC(N(C(=O)Nc3ccc(C)nc3OC(F)F)c3ccccc3C(C)C)C2)C1 [Example 70, 1-(2-acetyl-2-azaspiro[3.3]heptan-6-yl)-3-(2-(difluoromethoxy)-6-methylpyridin-3-yl)-1-(2-isopropylphenyl)urea]",100 to 1000
3,CC(C)c1ccccc1N(C(=O)Nc1ccc(O)nc1OC(F)F)[C@H]1CC[C@H](C(=O)O)CC1 [Example 320],10 to 100
4,"COc1ccc(NC(=O)N(c2ccccc2C(C)C)[C@H]2C[C@@H]3CC[C@H]2N3C(C)=O)c(OC(F)F)n1 (racemic) [Example 60, rac-1-((1R,2S,4S)-7-acetyl-7-azabicyclo[2.2.1]heptan-2-yl)-3-(2-(difluoromethoxy)-6-methoxypyridin-3-yl)-1-(2-isopropylphenyl)urea]",> 1000
5,"CC(C)c1ccccc1N(C(=O)Nc1ccc(Cl)cn1)[C@H]1CC[C@H](C(=O)O)CC1 [Example 297, (1r,4r)-4-(3-(5-chloropyridin-2-yl)-1-(2-isopropylphenyl)ureido)cyclohexane-1-carboxylic acid]",10 to 100
6,Cc1cc(OC(F)F)c(NC(=O)N(C[C@H]2C[C@H](C(=O)O)C2)c2ccccc2C(C)C)cn1 [Example 227],10 to 100
7,"Cc1ccc(NC(=O)N(c2ccccc2C(C)C)[C@H]2CCN(C(=O)OC(C)(C)C)C2)c(OC(F)F)n1 [Example 8, tert-butyl (S)-3-(3-(2-(difluoromethoxy)-6-methylpyridin-3-yl)-1-(2-isopropylphenyl)ureido)pyrrolidine-1-carboxylate]",100 to 1000
8,"Cc1ccc(NC(=O)N(CC2CS(=O)(=O)C2)c2ccccc2C(C)C)c(OC(F)F)n1 [Example 19, 3-(2-(difluoromethoxy)-6-methylpyridin-3-yl)-1-((1,1-dioxidothietan-3-yl)methyl)-1-(2-isopropylphenyl)urea]",100 to 1000
9,"COC[C@H](C)Oc1cc(C)ncc1NC(=O)N(c1ccccc1C(C)C)[C@H]1CC[C@H](C(=O)O)CC1 [Example 317, trans-4-(1-(2-isopropylphenyl)-3-(4-(((S)-1-methoxypropan-2-yl)oxy)-6-methylpyridin-3-yl)ureido)cyclohexane-1-carboxylic acid]",100 to 1000
10,"Cc1ccc(NC(=O)N(c2ccccc2C(C)C)[C@H]2CCN(C(=O)Cn3nccn3)C2)c(OC(F)F)n1 [Example 83, (S)-1-(1-(2-(2H-1,2,3-triazol-2-yl)acetyl)pyrrolidin-3-yl)-3-(2-(difluoromethoxy)-6-methylpyridin-3-yl)-1-(2-isopropylphenyl)urea]",100 to 1000
11,"Cc1ccc(NC(=O)N(c2ccccc2C(C)C)[C@H]2CCN(S(C)(=O)=O)C2)c(OC(F)F)n1 [Example 75, (S)-3-(2-(difluoromethoxy)-6-methylpyridin-3-yl)-1-(2-isopropylphenyl)-1-(1-(methylsulfonyl)pyrrolidin-3-yl)urea]",10 to 100
12,Cc1ccc(NC(=O)N(c2ccccc2C(C)C)[C@H]2C[C@H](CC(N)=O)C2)c(OC(F)F)n1 [Example 188],100 to 1000
13,"Cc1ccc(NC(=O)N(c2ccccc2C(C)C)C2CN(C(=O)OC(C)(C)C)C2)c(OC(F)F)n1 [Example 2, tert-butyl 3-(3-(2-(difluoromethoxy)-6-methylpyridin-3-yl)-1-(2-isopropylphenyl)ureido)azetidine-1-carboxylate]",100 to 1000
14,"CC(=O)N1CC(N(C(=O)Nc2ccc(C)cc2OC(F)F)c2ccccc2C(C)C)C1 [Example 117, 1-(1-acetylazetidin-3-yl)-3-(2-(difluoromethoxy)-4-methylphenyl)-1-(2-isopropylphenyl)urea]",10 to 100
15,"COc1ccc(NC(=O)N(c2ccccc2C(C)C)[C@H]2CC[C@@H](OC)CC2)c(OC(F)F)n1 [Example 39, 3-(2-(difluoromethoxy)-6-methoxypyridin-3-yl)-1-(2-isopropylphenyl)-1-((1s,4s)-4-methoxycyclohexyl)urea]",100 to 1000
16,COc1cc(C(F)F)ncc1NC(=O)N(c1ccccc1C(C)C)[C@H]1C[C@@H](CC(=O)O)C1 [Example 307],100 to 1000
17,"Cc1ccc(NC(=O)N(c2ccccc2C(C)C)C2COC2)c(OC(F)F)n1 [Example 14, 3-(2-(difluoromethoxy)-6-methylpyridin-3-yl)-1-(2-isopropylphenyl)-1-(oxetan-3-yl)urea]",10 to 100
18,Cc1ccc(NC(=O)N(c2ccccc2C(C)C)C2CCC(=O)CC2)c(OC(F)F)n1 [Example 243],100 to 1000

row,Structure (SMILES),IC50 [nM]
1,Cc1ccc(NC(=O)N(c2ccccc2C(C)C)[C@H]2CC[C@](C)(C(=O)O)CC2)c(OC(F)F)n1 [Example 309],< 10
2,"CC(C)c1ccccc1N(C(=O)Nc1ncc(Cl)cc1OC(F)F)C1CC(CC(=O)O)C1 (centres unmarked) [Example 175, 2-(3-(3-(5-chloro-3-(difluoromethoxy)pyridin-2-yl)-1-(2-isopropylphenyl)ureido)cyclobutyl)acetic acid]",< 10
3,"COc1ccc(NC(=O)N(c2ccccc2C(C)C)[C@H]2CC[C@H](C(=O)O)CC2)c(OCCF)n1 [Example 315, (1r,4r)-4-(3-(2-(2-fluoroethoxy)-6-methoxypyridin-3-yl)-1-(2-isopropylphenyl)ureido)cyclohexane-1-carboxylic acid]",10 to 100
4,Cc1ccc(NC(=O)N(c2ccccc2C(C)C)[C@@H]2CC[C@H](C(=O)O)C2)c(OC(F)F)n1 [Example 302],10 to 100
5,Cc1ccc(NC(=O)N(CC23CC(C(=O)O)(C2)C3(F)F)c2ccccc2C(C)C)c(OC(F)F)n1 [Example 235],10 to 100
6,Cc1ccc(NC(=O)N(c2ccccc2C(C)C)C2CC3(C2)CN(C(=O)NC2CC2)C3)c(OC(F)F)c1 [Example 126],10 to 100
7,"Cc1ccc(NC(=O)N(c2ccccc2C(C)C)[C@H]2CC[C@@H](C#N)CC2)c(OC(F)F)n1 [Example 240, 1-((1s,4s)-4-cyanocyclohexyl)-3-(2-(difluoromethoxy)-6-methylpyridin-3-yl)-1-(2-isopropylphenyl)urea]",100 to 1000
8,"Cc1ccc(NC(=O)N(c2ccccc2C(C)C)C2CC(C=O)C2)c(OC(F)F)n1 (centres unmarked) [Example 194, 3-(2-(difluoromethoxy)-6-methylpyridin-3-yl)-1-(3-formylcyclobutyl)-1-(2-isopropylphenyl)urea]",100 to 1000
9,"Cc1ccc(NC(=O)N(c2ccccc2C(C)C)[C@H]2CC[C@H](S(C)(=O)=O)CC2)c(OC(F)F)n1 [Example 256, 3-(2-(difluoromethoxy)-6-methylpyridin-3-yl)-1-(2-isopropylphenyl)-1-((1r,4r)-4-(methylsulfonyl)cyclohexyl)urea]",100 to 1000
10,CC(C)c1ccccc1N(C(=O)Nc1ncc(Br)cc1OC(F)F)C1CC(CC(=O)O)C1 (centres unmarked) [Example 176],10 to 100
11,"COc1ccc(NC(=O)N(c2ccccc2C(C)C)[C@H]2CC[C@H](c3cc(O)no3)CC2)c(OC(F)F)n1 [Example 283, 3-(2-(difluoromethoxy)-6-methoxypyridin-3-yl)-1-((1r,4r)-4-(3-hydroxyisoxazol-5-yl)cyclohexyl)-1-(2-isopropylphenyl)urea]",10 to 100
12,"Cc1ccc(NC(=O)N(c2ccccc2C(C)C)[C@H]2CC[C@H](C#N)CC2)c(OC(F)F)n1 [Example 241, 1-((1r,4r)-4-cyanocyclohexyl)-3-(2-(difluoromethoxy)-6-methylpyridin-3-yl)-1-(2-isopropylphenyl)urea]",100 to 1000
13,"CC(C)Oc1cc(C(F)F)ncc1NC(=O)N(c1ccccc1C(C)C)[C@H]1CC[C@H](C(=O)O)CC1 [Example 295, (1r,4r)-4-(3-(6-(difluoromethyl)-4-isopropoxypyridin-3-yl)-1-(2-isopropylphenyl)ureido)cyclohexane-1-carboxylic acid]",100 to 1000
14,"Cc1ccc(NC(=O)N(c2ccccc2C(C)C)C2CC3(C2)CN(S(C)(=O)=O)C3)c(OC(F)F)n1 [Example 76, 3-(2-(difluoromethoxy)-6-methylpyridin-3-yl)-1-(2-isopropylphenyl)-1-(2-(methylsulfonyl)-2-azaspiro[3.3]heptan-6-yl)urea]",100 to 1000
15,Cc1nc(OC(F)F)c(NC(=O)N(c2ccccc2C(C)C)[C@H]2CC[C@@H](CC(=O)O)CC2)cc1F [Example 222],10 to 100
16,CC(=O)N1CC(N(C(=O)Nc2ncc(Cl)cc2OC(F)F)c2ccccc2C(C)C)C1 [Example 120],100 to 1000
17,"COC[C@H](C)Oc1nc(C)ccc1NC(=O)N(c1ccccc1C(C)C)[C@H]1CC[C@H](C(=O)O)CC1 [Example 316, trans-4-(1-(2-isopropylphenyl)-3-(2-(((S)-1-methoxypropan-2-yl)oxy)-6-methylpyridin-3-yl)ureido)cyclohexane-1-carboxylic acid]",10 to 100

# Same assay, conditions: LPAR1 IC50
row,Structure (SMILES),IC50 [nM]
1,"COc1ccc(NC(=O)N(c2ccccc2C(C)C)C2C3CC2CN(C(C)=O)C3)c(OC(F)F)n1 (centres unmarked) [Example 53, 1-(3-acetyl-3-azabicyclo[3.1.1]heptan-6-yl)-3-(2-(difluoromethoxy)-6-methoxypyridin-3-yl)-1-(2-isopropylphenyl)urea]",100 to 1000
2,CC(=O)N1CCC(N(C(=O)Nc2ccc(C(F)(F)F)nc2C)c2ccccc2C(C)C)CC1 [Example 88],> 1000
3,"COc1ccc(NC(=O)N(c2ccccc2C(C)C)[C@H]2CCN(C(C)=O)C[C@H]2F)c(OC(F)F)n1 (racemic) [Example 47, rac-1-((3R,4S)-1-acetyl-3-fluoropiperidin-4-yl)-3-(2-(difluoromethoxy)-6-methoxypyridin-3-yl)-1-(2-isopropylphenyl)urea]",10 to 100
4,CC(=O)N1CCC(N(C(=O)Nc2ccc(C(F)F)nc2OC(F)F)c2ccccc2C(C)C)CC1 [Example 115],10 to 100
5,CC(=O)N1CCC(N(C(=O)Nc2ccc(C)nc2OCC(F)(F)F)c2ccccc2C(C)C)CC1 [Example 104],100 to 1000
6,"CC(=O)N1CCC(N(C(=O)Nc2ccc(C)nc2OC(F)F)c2ccccc2C(C)C)CC1 [Example 66, 1-(1-acetylpiperidin-4-yl)-3-(2-(difluoromethoxy)-6-methylpyridin-3-yl)-1-(2-isopropylphenyl)urea]",< 10
